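A five-concentration, 48-hour dose response in 96-well plates underlies each endpoint, interpolated linearly between surrounding concentrations. GI50 = concentration required for 50% inhibition of growth. At the TGI there is no net growth.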

In one experiment the test system is CAKI-1 renal. The experiment in a line: NCI anticancer screen, dose series, 48 h.
In the case of `O=[N+]([O-])c1ccc(C=Cc2ccccc2)cc1.[C-]#[O+].[C-]#[O+].[C-]#[O+].[Cr]`, the GI50 is 11.9 µM and the TGI was over 100 µM.
`NNC(=O)CS(=O)(=O)Nc1ncccn1`: the TGI was over 100 µM.
Regarding `COc1cccc(OC(=O)c2ccc(C(F)(F)F)nc2Nc2cc(Cl)ccc2C)c1`, the GI50 was 17.6 µM and the TGI came to 36.1 µM.
Turning to `COc1cc2c(cc1OCCCn1c(-c3ccccn3)nc3ccccc31)N=C[C@@H]1CCCN1C2=O`, the GI50 is 2.16 µM and the TGI worked out at 5.6 µM.
The corresponding values for `c1cnn2ncc(-c3ccnc(NCCCN4CCOCC4)n3)c2c1` are 6.64 µM and over 25 µM.
On the same counts, the results for `O=C(Nc1ccc(OCc2nnc(-c3ccc(Cl)cc3)o2)c(F)c1)Nc1ccc(Cl)c(C(F)(F)F)c1` are 2.97 µM and 12.2 µM.

For a further experiment, the system named is LOX IMVI melanoma. The experiment in a line: NCI anticancer screen, dose series, 48 h.
Consider `O=[N+]([O-])c1ccc(C=Cc2ccccc2)cc1.[C-]#[O+].[C-]#[O+].[C-]#[O+].[Cr]`, for which the GI50 is 31.3 µM and the TGI was over 100 µM.
For `NNC(=O)CS(=O)(=O)Nc1ncccn1`, the TGI is over 100 µM.
On to `COc1cccc(OC(=O)c2ccc(C(F)(F)F)nc2Nc2cc(Cl)ccc2C)c1`, for which the GI50 was 3.68 µM and the TGI came out at 23.8 µM.
On to `COc1cc2c(cc1OCCCn1c(-c3ccccn3)nc3ccccc31)N=C[C@@H]1CCCN1C2=O`, for which the GI50 was 1.71 µM and the TGI came to 6.16 µM.
Consider `c1cnn2ncc(-c3ccnc(NCCCN4CCOCC4)n3)c2c1`, for which the GI50 was 5.18 µM and the TGI was over 25 µM.
For `O=C(Nc1ccc(OCc2nnc(-c3ccc(Cl)cc3)o2)c(F)c1)Nc1ccc(Cl)c(C(F)(F)F)c1`, the GI50 is 2.23 µM and the TGI turned out to be 6.66 µM.

Another experiment concerns HOP-92 NSCLC. The experiment in a line: NCI anticancer screen, dose series, 48 h.
On to `O=[N+]([O-])c1ccc(C=Cc2ccccc2)cc1.[C-]#[O+].[C-]#[O+].[C-]#[O+].[Cr]`, for which the GI50 is 4.94 µM and the TGI is over 100 µM.
For the compound `NNC(=O)CS(=O)(=O)Nc1ncccn1`, the TGI was over 100 µM.
In the case of `COc1cccc(OC(=O)c2ccc(C(F)(F)F)nc2Nc2cc(Cl)ccc2C)c1`, the GI50 was 1.63 µM and the TGI worked out at 6.98 µM.
On the same counts, the results for `COc1cc2c(cc1OCCCn1c(-c3ccccn3)nc3ccccc31)N=C[C@@H]1CCCN1C2=O` are 3.87 µM and 26.6 µM.
The corresponding values for `c1cnn2ncc(-c3ccnc(NCCCN4CCOCC4)n3)c2c1` are 5.08 µM and 17.4 µM.
The corresponding values for `O=C(Nc1ccc(OCc2nnc(-c3ccc(Cl)cc3)o2)c(F)c1)Nc1ccc(Cl)c(C(F)(F)F)c1` are 1.46 µM and 3.82 µM.

For a further experiment, the system named is RXF 393 renal. The experiment in a line: NCI anticancer screen, dose series, 48 h.
Take `O=[N+]([O-])c1ccc(C=Cc2ccccc2)cc1.[C-]#[O+].[C-]#[O+].[C-]#[O+].[Cr]`: the GI50 was 11.8 µM and the TGI is over 100 µM.
The compound `NNC(=O)CS(=O)(=O)Nc1ncccn1` showed a TGI of over 100 µM.
Consider `COc1cccc(OC(=O)c2ccc(C(F)(F)F)nc2Nc2cc(Cl)ccc2C)c1`, for which the GI50 is 0.245 µM and the TGI was determined as 0.987 µM.
The corresponding values for `COc1cc2c(cc1OCCCn1c(-c3ccccn3)nc3ccccc31)N=C[C@@H]1CCCN1C2=O` are 0.571 µM and 3.64 µM.
The corresponding values for `c1cnn2ncc(-c3ccnc(NCCCN4CCOCC4)n3)c2c1` are 3.34 µM and 7.78 µM.
The corresponding values for `O=C(Nc1ccc(OCc2nnc(-c3ccc(Cl)cc3)o2)c(F)c1)Nc1ccc(Cl)c(C(F)(F)F)c1` are 2.6 µM and 7.76 µM.

The subject of the next experiment is MDA-MB-231 breast. The experiment in a line: NCI anticancer screen, dose series, 48 h.
For `O=[N+]([O-])c1ccc(C=Cc2ccccc2)cc1.[C-]#[O+].[C-]#[O+].[C-]#[O+].[Cr]`, the GI50 was 46.9 µM and the TGI is over 100 µM.
For the compound `NNC(=O)CS(=O)(=O)Nc1ncccn1`, the TGI was over 100 µM.
As to `COc1cccc(OC(=O)c2ccc(C(F)(F)F)nc2Nc2cc(Cl)ccc2C)c1`, the GI50 was 2.76 µM and the TGI stood at 15.7 µM.
On the same counts, the results for `COc1cc2c(cc1OCCCn1c(-c3ccccn3)nc3ccccc31)N=C[C@@H]1CCCN1C2=O` are 2.5 µM and 13.5 µM.
On the same counts, the results for `c1cnn2ncc(-c3ccnc(NCCCN4CCOCC4)n3)c2c1` are 8.04 µM and over 25 µM.
`O=C(Nc1ccc(OCc2nnc(-c3ccc(Cl)cc3)o2)c(F)c1)Nc1ccc(Cl)c(C(F)(F)F)c1`: the GI50 is 2.35 µM and the TGI came out at 7.64 µM.

Another experiment deals with SNB-75 CNS. The experiment in a line: NCI anticancer screen, dose series, 48 h.
`O=[N+]([O-])c1ccc(C=Cc2ccccc2)cc1.[C-]#[O+].[C-]#[O+].[C-]#[O+].[Cr]`: the GI50 is 4.46 µM and the TGI came to 37.8 µM.
The compound `NNC(=O)CS(=O)(=O)Nc1ncccn1` displayed a TGI of over 100 µM.
As for `COc1cccc(OC(=O)c2ccc(C(F)(F)F)nc2Nc2cc(Cl)ccc2C)c1`, the GI50 was 9.04 µM and the TGI is over 100 µM.
The corresponding values for `COc1cc2c(cc1OCCCn1c(-c3ccccn3)nc3ccccc31)N=C[C@@H]1CCCN1C2=O` are 1.72 µM and 5.73 µM.
With `c1cnn2ncc(-c3ccnc(NCCCN4CCOCC4)n3)c2c1`, the GI50 was 5.52 µM and the TGI is 12.7 µM.
The corresponding values for `O=C(Nc1ccc(OCc2nnc(-c3ccc(Cl)cc3)o2)c(F)c1)Nc1ccc(Cl)c(C(F)(F)F)c1` are 1.44 µM and 6.29 µM.

The subject of a further experiment is ACHN renal. The experiment in a line: NCI anticancer screen, dose series, 48 h.
Turning to `O=[N+]([O-])c1ccc(C=Cc2ccccc2)cc1.[C-]#[O+].[C-]#[O+].[C-]#[O+].[Cr]`, the GI50 was 18.5 µM and the TGI is over 100 µM.
For `NNC(=O)CS(=O)(=O)Nc1ncccn1`, the TGI is over 100 µM.
With `COc1cccc(OC(=O)c2ccc(C(F)(F)F)nc2Nc2cc(Cl)ccc2C)c1`, the GI50 is 15.6 µM and the TGI was over 100 µM.
On the same counts, the results for `COc1cc2c(cc1OCCCn1c(-c3ccccn3)nc3ccccc31)N=C[C@@H]1CCCN1C2=O` are 2.23 µM and 6.28 µM.
On to `c1cnn2ncc(-c3ccnc(NCCCN4CCOCC4)n3)c2c1`, for which the GI50 is 6.08 µM and the TGI is over 25 µM.
On the same counts, the results for `O=C(Nc1ccc(OCc2nnc(-c3ccc(Cl)cc3)o2)c(F)c1)Nc1ccc(Cl)c(C(F)(F)F)c1` are 2.11 µM and 8.52 µM.

For another experiment, the system named is K-562 leukemia. The experiment in a line: NCI anticancer screen, dose series, 48 h.
For `O=[N+]([O-])c1ccc(C=Cc2ccccc2)cc1.[C-]#[O+].[C-]#[O+].[C-]#[O+].[Cr]`, the GI50 is 8.61 µM and the TGI is over 100 µM.
In turn, `NNC(=O)CS(=O)(=O)Nc1ncccn1` registered a TGI of over 100 µM.
In the case of `COc1cccc(OC(=O)c2ccc(C(F)(F)F)nc2Nc2cc(Cl)ccc2C)c1`, the GI50 was 3.13 µM and the TGI stood at 9.36 µM.
On the same counts, the results for `COc1cc2c(cc1OCCCn1c(-c3ccccn3)nc3ccccc31)N=C[C@@H]1CCCN1C2=O` are 12.2 µM and over 55.3 µM.
The corresponding values for `c1cnn2ncc(-c3ccnc(NCCCN4CCOCC4)n3)c2c1` are over 22.4 µM and over 25 µM.
On the same counts, the results for `O=C(Nc1ccc(OCc2nnc(-c3ccc(Cl)cc3)o2)c(F)c1)Nc1ccc(Cl)c(C(F)(F)F)c1` are 2.94 µM and 12.6 µM.

The test system of the next experiment is UO-31 renal. The experiment in a line: NCI anticancer screen, dose series, 48 h.
As for `O=[N+]([O-])c1ccc(C=Cc2ccccc2)cc1.[C-]#[O+].[C-]#[O+].[C-]#[O+].[Cr]`, the GI50 was 6.3 µM and the TGI is over 100 µM.
As to `NNC(=O)CS(=O)(=O)Nc1ncccn1`, the TGI was over 100 µM.
Regarding `COc1cccc(OC(=O)c2ccc(C(F)(F)F)nc2Nc2cc(Cl)ccc2C)c1`, the GI50 is 5.8 µM and the TGI is over 100 µM.
On the same counts, the results for `COc1cc2c(cc1OCCCn1c(-c3ccccn3)nc3ccccc31)N=C[C@@H]1CCCN1C2=O` are 0.474 µM and 2.59 µM.
On the same counts, the results for `c1cnn2ncc(-c3ccnc(NCCCN4CCOCC4)n3)c2c1` are 5.23 µM and 21 µM.
For the compound `O=C(Nc1ccc(OCc2nnc(-c3ccc(Cl)cc3)o2)c(F)c1)Nc1ccc(Cl)c(C(F)(F)F)c1`, the GI50 was 1.52 µM and the TGI stood at 4.1 µM.

The next experiment relates to DU-145 prostate. The experiment in a line: NCI anticancer screen, dose series, 48 h.
As for `O=[N+]([O-])c1ccc(C=Cc2ccccc2)cc1.[C-]#[O+].[C-]#[O+].[C-]#[O+].[Cr]`, the GI50 was 24.3 µM and the TGI was over 100 µM.
In the case of `NNC(=O)CS(=O)(=O)Nc1ncccn1`, the TGI was over 100 µM.
Turning to `COc1cccc(OC(=O)c2ccc(C(F)(F)F)nc2Nc2cc(Cl)ccc2C)c1`, the GI50 was 9.01 µM and the TGI is over 100 µM.
The corresponding values for `COc1cc2c(cc1OCCCn1c(-c3ccccn3)nc3ccccc31)N=C[C@@H]1CCCN1C2=O` are 2.72 µM and 6.72 µM.
On the same counts, the results for `c1cnn2ncc(-c3ccnc(NCCCN4CCOCC4)n3)c2c1` are 7.72 µM and over 25 µM.
On the same counts, the results for `O=C(Nc1ccc(OCc2nnc(-c3ccc(Cl)cc3)o2)c(F)c1)Nc1ccc(Cl)c(C(F)(F)F)c1` are 2.48 µM and 6.78 µM.
